Like-named read-outs stand apart in the source and are kept apart here. Blank lines part the entries; values can stand above or below the compound they belong to.
Assays:
[1] = tested on: THLE or HepG2 cells, isolated mitochondria, BSEP; conditions: cited from earlier work
Upcyte human hepatocytes = conditions: cited from earlier work
[2] = tested on: HepG2 C3A spheroid, BSEP, Glu/Gal in HepG2 cells, bioactivation; conditions: cited from earlier work
PHH = conditions: cited from earlier work
HepaRG spheroids [3] = tested on: HepaRG spheroids
hLiMTs [4] = experiment: Combined HCI (HCS) and cellular ATP 3D assay in hLiMTs; conditions: for AC50 / minimal effective concentration: Homo sapiens
[5] = Plasma free fraction (fu) and unbound Cmax (Cmax,u); assay type: in vitro ADME, human
[6] = cited from earlier work
[7] = tested on: primary human hepatocytes, NIH3T3 fibroblasts, BSEP, CYP3A4; conditions: cited from earlier work
[8] = cited from earlier work; remark: listed apart in the source
[9] = cited from earlier work; remark: listed apart in the source
[10] = tested on: THLE-Null and THLE-3A4 cells; conditions: cited from earlier work
human hepatocytes = conditions: cited from earlier work
HepG2 cells [11] = conditions: cited from earlier work
HepaRG spheroids [12] = experiment: Combined HCI (HCS) and cellular ATP 3D assay in HepaRG spheroids; conditions: for AC50 / minimal effective concentration: Homo sapiens
hLiMTs [13] = tested on: hLiMTs
PHH spheroids = conditions: cited from earlier work
[14] = tested on: HepG2 cells, primary human hepatocytes; conditions: cited from earlier work
rBsep = conditions: cited from earlier work
[15] = cited from earlier work; remark: listed apart in the source
HepG2 cells [16] = conditions: cited from earlier work; remark: listed apart in the source
hLiMTs [17] = conditions: cited from earlier work
[18] = plasma free fraction; cited from earlier work
[19] = HepaRG, read-out: ATP endpoint AC50
[20] = HepaRG, read-out: ATP endpoint MEC
[21] = HepaRG, read-out: HCS endpoint AC50
[22] = HepaRG, read-out: HCS endpoint MEC
[23] = In vitro Assay, ref Dawson 2012
[24] = Modeled in vitro assays (cytotoxicity, mitochondrial dysfunction, BSEP), ref Aleo et al. 2019
[25] = In vitro Assay, ref Proctor 2017
[26] = Microtissue model structural based (HCI), combined HCS and ATP, MEC < 25 × Cmax.tot cut-off
[27] = In vitro Assay, ref Gustafsson 2014

Structure (SMILES): Nc1c2c(nc3ccccc13)CCCC2 [tacrine, reference compound]
Ro2 Hybrid HRM Score [1]: +VE | Rule of Two hybrid HRM Score ≥8, Aleo (2019) [1]: -VE | Upcytes multi donor assay 14day data (Upcyte human hepatocytes): +VE | Bayesian Machine Learning [2]: +VE | Bayesian Machine Learning DILI prediction, Williams (2019) [2]: +VE | PHH ATP <100uM (PHH): -VE | PHH/100uM, Proctor (2017) (PHH): -VE | HepaRG <10 uM All (HepaRG spheroids [3]): -ve | HepaRG <100x Avg Cmaxu ATP (HepaRG spheroids [3]; human): -ve | HepaRG <100x Avg Cmaxu All (HepaRG spheroids [3]; human): -ve | HepaRG <100x Avg Cmaxu HCS (HepaRG spheroids [3]; human): -ve | HepaRG Cmax max All (HepaRG spheroids [3]; human): -ve | HepaRG Cmax min All (HepaRG spheroids [3]; human): -ve | AC50 (hLiMTs [4]; read-out: ATP endpoint AC50): 41.8 µM | minimal effective concentration (hLiMTs [4]; read-out: ATP endpoint MEC): 44.7 µM | AC50 (hLiMTs [4]; read-out: HCS endpoint AC50): 52.4 µM | minimal effective concentration (hLiMTs [4]; read-out: HCS endpoint MEC): 38.5 µM | Human plasma Cmax,u ([5]; human): 36 nM | Assigned DILI category ([6]; in vivo): 2 | Cellular toxicity (3T3 cells) [7]: -VE | Combined Assay [7]: +VE | DILI in vitro assay prediction, Schadt (2015) [7]: +VE | GSH adduct HML [7]: +VE | Hepatocyte cellular toxicity [7]: -VE | MitoTox 3T3 [7]: -VE | TDI CYP3A4 [7]: -VE | hBSEP inhibition [7]: -VE | DILI Score (FDA) (1-8) ([8]; in vivo): 7 | Cmax ([9]; human, in vivo): 80 nM | THLE-Null [10]: -VE | DILI in vitro assay prediction, Xu (2008) (human hepatocytes): -VE | Structural based (HCI) (human hepatocytes): -VE | Structural based (HCI) (HepG2 cells [11]): -VE | AC50 (HepaRG spheroids [12]; [19]): 51.8 µM | minimal effective concentration (HepaRG spheroids [12]; [20]): 45.3 µM | AC50 (HepaRG spheroids [12]; [21]): 65.6 µM | minimal effective concentration (HepaRG spheroids [12]; [22]): 48.7 µM | hLiMTs <10 uM All (hLiMTs [13]): -ve | hLiMTs <100x Avg Cmaxu ATP (hLiMTs [13]; human): -ve | hLiMTs <100x Avg Cmaxu All (hLiMTs [13]; human): -ve | hLiMTs <100x Avg Cmaxu HCS (hLiMTs [13]; human): -ve | hLiMTs Cmax max All (hLiMTs [13]; human): -ve | hLiMTs Cmax min All (hLiMTs [13]; human): -ve | DILI in vitro assay prediction, Vorrink (2018) (PHH spheroids): -VE | Cluster 1-6 +VE Assay [14]: +VE | Inhibition of rBsep cutoff<3 (rBsep; [23]): -VE | Inhibition of rBsep cutoff<1& cmax u>.2 (rBsep): -VE

hLiMTs <25x Avg Cmax ATP (hLiMTs [4]; hLiMTs, ATP endpoint, cut-off <25x Avg Cmax): +ve | hLiMTs <100x Avg Cmaxu ATP (hLiMTs [4]; hLiMTs, ATP endpoint, cut-off <100x Avg Cmaxu): +ve (<100x Avg Cmaxu) | hLiMTs <25x Avg Cmax HCS (hLiMTs [4]; hLiMTs, HCS endpoints, cut-off <25x Avg Cmax): +ve | hLiMTs <100x Avg Cmaxu HCS (hLiMTs [4]; hLiMTs, HCS endpoints, cut-off <100x Avg Cmaxu): +ve (<100x Avg Cmaxu) | hLiMTs <25x Avg Cmax All (hLiMTs [4]; hLiMTs, all endpoints (ATP and HCS), cut-off <25x Avg Cmax): +ve | hLiMTs Cmax max All (hLiMTs [4]; hLiMTs, all endpoints, Cmax max used): +ve | hLiMTs Cmax min All (hLiMTs [4]; hLiMTs, all endpoints, Cmax min used): +ve | hLiMTs <10 uM All (hLiMTs [4]; hLiMTs, all endpoints, cut-off <10 uM): +ve (<10 uM) | hLiMTs <100x Avg Cmaxu All (hLiMTs [4]; hLiMTs, all endpoints, cut-off <100x Avg Cmaxu): +ve (<100x Avg Cmaxu) | Human plasma Cmax,u ([5]; unbound plasma Cmax): 5048 nM | HepaRG <25x Avg Cmax ATP (HepaRG spheroids [12]; HepaRG, ATP endpoint, cut-off <25x Avg Cmax): +ve | HepaRG <100x Avg Cmaxu ATP (HepaRG spheroids [12]; HepaRG, ATP endpoint, cut-off <100x Avg Cmaxu): +ve (<100x Avg Cmaxu) | HepaRG <25x Avg Cmax HCS (HepaRG spheroids [12]; HepaRG, HCS endpoints, cut-off <25x Avg Cmax): +ve | HepaRG <100x Avg Cmaxu HCS (HepaRG spheroids [12]; HepaRG, HCS endpoints, cut-off <100x Avg Cmaxu): +ve (<100x Avg Cmaxu) | HepaRG <25x Avg Cmax All (HepaRG spheroids [12]; HepaRG, all endpoints (ATP and HCS), cut-off <25x Avg Cmax): +ve | HepaRG Cmax max All (HepaRG spheroids [12]; HepaRG, all endpoints, Cmax max used): +ve | HepaRG Cmax min All (HepaRG spheroids [12]; HepaRG, all endpoints, Cmax min used): +ve | HepaRG <10 uM All (HepaRG spheroids [12]; HepaRG, all endpoints, cut-off <10 uM): +ve (<10 uM) | HepaRG <100x Avg Cmaxu All (HepaRG spheroids [12]; HepaRG, all endpoints, cut-off <100x Avg Cmaxu): +ve (<100x Avg Cmaxu)
Structure (SMILES): Cn1cnc([N+](=O)[O-])c1Sc1ncnc2nc[nH]c12 [azathioprine]
Partition Hybrid HRM Score ([1]; In vitro Assay, ref Aleo 2019): -VE | Ro2 Hybrid HRM Score ([1]; In vitro Assay, ref Aleo 2019): +VE | Partition Hybrid HRM Score ≥4, Aleo (2019) [1, 24]: -VE | Partition Hybrid HRM Score ≥8, Aleo (2019) [1, 24]: -VE | Rule of Two hybrid HRM Score ≥3, Aleo (2019) [1, 24]: +VE (Rule of Two hybrid HRM Score ≥3) | Rule of Two hybrid HRM Score ≥8, Aleo (2019) [1, 24]: -VE | Upcytes multi donor assay 14day data (Upcyte human hepatocytes; In vitro Assay, ref Tolosa 2019): +VE | PHH/100xCmax, Proctor (2017) (PHH; 2D PHH, ATP, IC50 < 100 × Cmax.tot, ref Proctor et al. 2017): -VE | PHH/100uM, Proctor (2017) (PHH; 2D PHH, ATP, IC50 threshold 100 µM, ref Proctor et al. 2017): -VE | PHH ATP <100uM (PHH; [25]): -VE | DILI severity category (Chen et al. [2016]) ([15]; LTKB DILIrank category, ref Chen et al. 2016): Most | DILI severity category (Chen 2016) ([15]; human DILI classification, LTKB DILIrank, ref Chen et al. 2016): Most | DILI severity category ([15]; human DILI severity, ref Chen et al.): Most | DILI +VE (5-8), DILI -VE (-4) ([15]; ref Chen 2016): +VE | DILI severity category ([15]; ref Chen 2016): vMost-DILI-Concern | AC50 (hLiMTs [4]; read-out: ATP endpoint AC50): 1.18 µM | minimal effective concentration (hLiMTs [4]; read-out: ATP endpoint MEC): 0.361 µM | AC50 (hLiMTs [4]; read-out: HCS endpoint AC50): 41.6 µM | minimal effective concentration (hLiMTs [4]; read-out: HCS endpoint MEC): 1.58 µM | DILI prediction hLiMTs (HCS-MEC) (hLiMTs [4]; [26]): +VE (MEC < 25 × Cmax.tot cut-off) | Structural based (HCI) (HepG2 cells [16]; In vitro Assay, ref Tolosa 2012): +VE | DILI in vitro assay prediction, Tolosa (2012) (HepG2 cells [16]; Structural based (HCI), HepG2, ref Tolosa et al. 2012): +VE | hLiMTs ATP <100uM (hLiMTs [17]; [25]): +VE (IC50 threshold of 100 µM) | hLiMTs/100xCmax, Proctor (2017) (hLiMTs [17]; hLiMTs, ATP, IC50 < 100 × Cmax.tot, ref Proctor et al. 2017): +VE (IC50 < 100 × Cmax.tot) | hLiMTs/100uM, Proctor (2017) (hLiMTs [17]; hLiMTs, ATP, IC50 threshold 100 µM, ref Proctor et al. 2017): +VE (IC50 threshold of 100 µM) | Assigned DILI category ([6]; Chen et al. 2016 or literature alignment, ref Chen et al. 2016): 3 | In vivo DILI ([6]; […]): +VE | In vivo DILI ([6]; ref Aleo 2019): +VE | In vivo DILI ([6]; ref Dawson 2012): +VE | In vivo DILI ([6]; ref Garside 2014): +VE | In vivo DILI ([6]; ref Gustafsson 2014): +VE | In vivo DILI ([6]; ref O'Brien 2006): +VE | In vivo DILI ([6]; ref Proctor 2017): +VE | In vivo DILI ([6]; ref Tolosa 2012): +VE | In vivo DILI ([6]; ref Tolosa 2019): +VE | In vivo DILI ([6]; ref Vorrink 2018): +VE | In vivo DILI ([6]; ref Xu 2008): +VE | DILI Score (FDA) (1-8) ([8]; ref Chen 2011): 3 | fu [18]: 0.700 | Cmax ([9]; read-out: Human plasma Cmax, total plasma Cmax.tot, median of 9 literature references): 7210 nM | THLE-Null [10, 27]: -VE | THLE-Null/3A4 [10, 27]: -VE | Structural based (HCI) (human hepatocytes; In vitro Assay, ref Xu 2008): +VE | DILI in vitro assay prediction, Xu (2008) (human hepatocytes; Structural based (HCI), human hepatocytes, ref Xu et al. 2008): +VE | Structural based (HCI) (HepG2 cells [11]; In vitro Assay, ref O'Brien 2006): +VE | DILI in vitro assay prediction, O'Brien (2006) (HepG2 cells [11]; Structural based (HCI), HepG2, ref O'Brien et al. 2006): +VE (lowest HCI endpoint IC50 (or in the absence of dose–response < 100 µM) < 30 × total human plasma exposure levels (Cmax.tot)) | AC50 (HepaRG spheroids [12]; [19]): 0.48 µM | minimal effective concentration (HepaRG spheroids [12]; [20]): 0.278 µM | AC50 (HepaRG spheroids [12]; [21]): 2 µM | minimal effective concentration (HepaRG spheroids [12]; [22]): 0.0805 µM | DILI prediction HepaRG spheroids (HCS-MEC) (HepaRG spheroids [12]; [26]): +VE (MEC < 25 × Cmax.tot cut-off) | hLiMTs ATP <20 x Cmax (PHH spheroids; In vitro Assay, ref Vorrink 2018): +VE (IC20 < 20 × Cmax.tot cut-off) | DILI in vitro assay prediction, Vorrink (2018) (PHH spheroids; PHH spheroids, ATP, 14 days, IC20 < 20 × Cmax.tot, ref Vorrink et al. 2018): +VE (IC20 < 20 × Cmax.tot cut-off) | Cluster 1-6 +VE Assay ([14]; In vitro Assay, ref Garside 2014): -VE | Inhibition of rBsep cutoff<1& cmax u>.2 (rBsep; [23]): -VE | Inhibition of rBsep cutoff<3 (rBsep; [23]): -VE

Reference: article PMC7395068, “The evolution of strategies to minimise the risk of human drug-induced liver injury (DILI) in drug discovery and development” (Archives of Toxicology, 2020)
